US20230159556A1, “NOVEL PROTEIN KINASE INHIBITORS” (TENOVA PHARMACEUTICALS INC., priority 2020, published 2023)

Tests used:
Ba/F3_WT cell = assay: BaF3 cell proliferation assay (CelltiterGlo, 72 hr); format: cell-based; conditions: Mus musculus, 72 hr incubation
How it was run: (§1)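 Cells in 1640 medium with 10% FBS, seeded at 700/well and exposed to compound for 72 h at 37 °C/5% CO2. Viability read by CellTiter-Glo luminescence, converted to % inhibition; IC50 from variable-slope four-parameter nonlinear fit against log concentration.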

[1] = molecular target: Ba/F3_EGFR_del19/T790M/C797S cell (Homo sapiens, UniProt P00533, T790M/C797S, cells depend on it, form not given); assay: as above; format: cell-based; conditions: 72 hr incubation; read-out: IC50 (nM, Ba/F3_EGFR_del19/T790M/C797S cell proliferation)
How it was run: as §1

[2] = from COc1cc(N2CCC(N3CCN(C)CC3)CC2)c(CCCCCBr)cc1Nc1ncc(Br)c(Nc2ccc(O)cc2N(C)S(C)(=O)=O)n1; ether bond; 18-membered ring; KI/K2CO3; DMF; 10.2 mM
[3] = from COc1cc(N2CCC(N3CCN(C)CC3)CC2)c(CCCCCBr)cc1Nc1ncc(Br)c(Nc2ccc(O)cc2N(C)S(C)(=O)=O)n1; ether bond; K2CO3/KI; DMF; 10.2 mM; 25.0 °C; 16.0 h
EGFR_L858R/T790M/C797S = molecular target: T1, EGFR_L858R/T790M/C797S (Homo sapiens, UniProt P00533, C797S/L858R/T790M); assay: In vitro biochemical kinase assay (33P-ATP filter-binding, Reaction Biology)
T1 construct: Reaction Biology Corporation (contract assay provider)
How it was run: (§2)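 Compounds preincubated with kinase 20 min at room temperature in Hepes pH 7.5 buffer (10 mM MgCl2, 2 mM DTT, 1% DMSO), then 33P-ATP added for 2 h. Filter-binding radioactivity expressed as % activity remaining versus DMSO; IC50 by curve fit.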

EGFR_WT = molecular target: T2, EGFR_WT (Homo sapiens, UniProt P00533); assay: as above
T2 construct: Reaction Biology Corporation (contract assay provider)
How it was run: as §2

[4] = test system: BaF3-EGFR-Del19/T790M/C797S cells; assay: In vivo Cell Transplant Xenograft (CTX) model; design: species or system BALB/c nude mice; conditions: for tumor growth inhibition rate TGITV (%): end of the experiment
Protocol: The pharmacological experiments in vivo were performed on BALB/c nude mice that subcutaneously implanted BaF3-EGFR-Del19/T790M/C797S cells. BALB/c nude mice, female, 6-8 weeks, weighted about 16-19 grams, the mice were kept in a special pathogen-free environment, and in a single ventilation cage (3 mice per cage). The bedding and water of all the cages were disinfected before use. All animals were free to obtain standard certified commercial laboratory diets. The BaF3-EGFR-Del19/T790M/C797S cell (5×10^6 cells/mice) was implanted subcutaneously for tumor growth. After 10 days, the experiment was started the average tumor volume reached about 130 mm^3. The mice were divided into 4 groups with 6 mice in each group. Compound A29 was orally administered once daily continuously for 15 days at 5 mg/kg, 15 mg/kg and 45 mg/kg. The tumor volume was measured twice a week with a two-dimensional caliper and the volume was measured in cubic millimeters and calculated by the following formula: V=0.5 a×b2, where a and b were the major and minor diameters of the tumor, respectively. The tumor volume at day n is expressed as Relative Tumor Volume (RTV) and calculated according to the following formula: RTV=TVn/TV0, where TVn is the tumor volume at day n and TV0 is the tumor volume at day 0. The T/C (the ratio of tumor volume in […] mice) is determined by TIC (%)=(mean RTV of treated group)/(mean RTV of control group)×100%. The tumor growth inhibition rate TGITV (%) is calculated using the formula TGITV (%)=(1−T/C)×100%.

Sequence of Ba/F3_EGFR_del19/T790M/C797S cell (P00533 with tags, fused parts or gaps DEL746-750/T790M/C797S, form open): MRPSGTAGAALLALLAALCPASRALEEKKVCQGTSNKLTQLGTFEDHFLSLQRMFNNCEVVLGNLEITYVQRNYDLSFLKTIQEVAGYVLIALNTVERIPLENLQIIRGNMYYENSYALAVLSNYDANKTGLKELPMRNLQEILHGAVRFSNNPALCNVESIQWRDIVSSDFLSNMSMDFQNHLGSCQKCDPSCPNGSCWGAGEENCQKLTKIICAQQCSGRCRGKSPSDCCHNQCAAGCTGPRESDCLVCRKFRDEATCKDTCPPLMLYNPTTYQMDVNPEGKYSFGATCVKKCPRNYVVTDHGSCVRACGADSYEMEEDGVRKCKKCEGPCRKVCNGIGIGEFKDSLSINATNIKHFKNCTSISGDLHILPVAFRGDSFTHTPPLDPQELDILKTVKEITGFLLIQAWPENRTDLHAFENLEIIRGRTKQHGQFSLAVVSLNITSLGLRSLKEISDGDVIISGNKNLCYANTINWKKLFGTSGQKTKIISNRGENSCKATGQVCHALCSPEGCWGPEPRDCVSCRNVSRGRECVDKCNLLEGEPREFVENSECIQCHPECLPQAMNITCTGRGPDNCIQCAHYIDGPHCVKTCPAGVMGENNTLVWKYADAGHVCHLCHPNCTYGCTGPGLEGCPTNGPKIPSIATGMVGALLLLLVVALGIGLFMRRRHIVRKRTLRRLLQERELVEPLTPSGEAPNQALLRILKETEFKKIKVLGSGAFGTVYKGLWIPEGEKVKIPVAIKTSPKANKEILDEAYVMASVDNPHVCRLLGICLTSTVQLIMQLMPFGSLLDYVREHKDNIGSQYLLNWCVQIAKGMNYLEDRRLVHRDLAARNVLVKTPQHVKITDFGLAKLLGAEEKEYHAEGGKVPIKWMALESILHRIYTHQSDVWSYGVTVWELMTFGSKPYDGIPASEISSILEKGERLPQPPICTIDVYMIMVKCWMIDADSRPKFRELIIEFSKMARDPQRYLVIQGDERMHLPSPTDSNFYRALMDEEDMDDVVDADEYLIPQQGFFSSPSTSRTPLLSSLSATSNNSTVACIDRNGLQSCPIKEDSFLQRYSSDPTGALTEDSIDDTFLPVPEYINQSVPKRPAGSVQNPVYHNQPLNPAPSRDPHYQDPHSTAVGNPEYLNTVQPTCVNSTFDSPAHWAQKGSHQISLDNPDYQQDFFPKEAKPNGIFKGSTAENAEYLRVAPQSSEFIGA
T1 sequence (P00533 25-1210 T790M/C797S/L858R): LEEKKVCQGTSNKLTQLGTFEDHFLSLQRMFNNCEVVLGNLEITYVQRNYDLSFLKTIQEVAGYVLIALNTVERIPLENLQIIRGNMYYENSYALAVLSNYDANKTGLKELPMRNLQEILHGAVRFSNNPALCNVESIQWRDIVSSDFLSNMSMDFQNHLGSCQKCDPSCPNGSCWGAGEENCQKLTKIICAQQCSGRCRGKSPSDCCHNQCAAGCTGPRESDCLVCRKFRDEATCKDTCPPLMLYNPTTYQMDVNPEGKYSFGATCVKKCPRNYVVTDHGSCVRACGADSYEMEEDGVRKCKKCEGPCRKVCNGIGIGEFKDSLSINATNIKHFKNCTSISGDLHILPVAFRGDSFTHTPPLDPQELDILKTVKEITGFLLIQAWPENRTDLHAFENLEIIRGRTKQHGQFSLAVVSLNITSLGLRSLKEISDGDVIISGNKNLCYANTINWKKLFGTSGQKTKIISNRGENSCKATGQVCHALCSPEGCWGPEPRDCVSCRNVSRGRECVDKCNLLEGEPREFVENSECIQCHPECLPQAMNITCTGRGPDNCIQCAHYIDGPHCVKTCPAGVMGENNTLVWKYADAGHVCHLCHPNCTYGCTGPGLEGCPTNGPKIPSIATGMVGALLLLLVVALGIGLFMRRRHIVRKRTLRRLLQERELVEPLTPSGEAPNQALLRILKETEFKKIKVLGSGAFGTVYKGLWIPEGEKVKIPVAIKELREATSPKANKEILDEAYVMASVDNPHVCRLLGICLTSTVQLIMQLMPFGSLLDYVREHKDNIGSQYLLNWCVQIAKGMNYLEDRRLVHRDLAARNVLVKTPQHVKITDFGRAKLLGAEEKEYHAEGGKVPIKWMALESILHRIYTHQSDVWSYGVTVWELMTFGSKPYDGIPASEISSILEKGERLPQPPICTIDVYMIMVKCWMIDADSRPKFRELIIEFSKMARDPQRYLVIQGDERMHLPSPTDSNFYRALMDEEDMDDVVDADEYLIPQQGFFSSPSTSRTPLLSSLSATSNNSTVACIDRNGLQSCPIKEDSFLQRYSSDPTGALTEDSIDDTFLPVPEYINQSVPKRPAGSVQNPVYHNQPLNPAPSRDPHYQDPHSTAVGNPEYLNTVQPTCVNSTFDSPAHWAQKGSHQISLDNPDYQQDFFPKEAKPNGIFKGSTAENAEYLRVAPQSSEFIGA
T2 sequence (P00533 25-1210): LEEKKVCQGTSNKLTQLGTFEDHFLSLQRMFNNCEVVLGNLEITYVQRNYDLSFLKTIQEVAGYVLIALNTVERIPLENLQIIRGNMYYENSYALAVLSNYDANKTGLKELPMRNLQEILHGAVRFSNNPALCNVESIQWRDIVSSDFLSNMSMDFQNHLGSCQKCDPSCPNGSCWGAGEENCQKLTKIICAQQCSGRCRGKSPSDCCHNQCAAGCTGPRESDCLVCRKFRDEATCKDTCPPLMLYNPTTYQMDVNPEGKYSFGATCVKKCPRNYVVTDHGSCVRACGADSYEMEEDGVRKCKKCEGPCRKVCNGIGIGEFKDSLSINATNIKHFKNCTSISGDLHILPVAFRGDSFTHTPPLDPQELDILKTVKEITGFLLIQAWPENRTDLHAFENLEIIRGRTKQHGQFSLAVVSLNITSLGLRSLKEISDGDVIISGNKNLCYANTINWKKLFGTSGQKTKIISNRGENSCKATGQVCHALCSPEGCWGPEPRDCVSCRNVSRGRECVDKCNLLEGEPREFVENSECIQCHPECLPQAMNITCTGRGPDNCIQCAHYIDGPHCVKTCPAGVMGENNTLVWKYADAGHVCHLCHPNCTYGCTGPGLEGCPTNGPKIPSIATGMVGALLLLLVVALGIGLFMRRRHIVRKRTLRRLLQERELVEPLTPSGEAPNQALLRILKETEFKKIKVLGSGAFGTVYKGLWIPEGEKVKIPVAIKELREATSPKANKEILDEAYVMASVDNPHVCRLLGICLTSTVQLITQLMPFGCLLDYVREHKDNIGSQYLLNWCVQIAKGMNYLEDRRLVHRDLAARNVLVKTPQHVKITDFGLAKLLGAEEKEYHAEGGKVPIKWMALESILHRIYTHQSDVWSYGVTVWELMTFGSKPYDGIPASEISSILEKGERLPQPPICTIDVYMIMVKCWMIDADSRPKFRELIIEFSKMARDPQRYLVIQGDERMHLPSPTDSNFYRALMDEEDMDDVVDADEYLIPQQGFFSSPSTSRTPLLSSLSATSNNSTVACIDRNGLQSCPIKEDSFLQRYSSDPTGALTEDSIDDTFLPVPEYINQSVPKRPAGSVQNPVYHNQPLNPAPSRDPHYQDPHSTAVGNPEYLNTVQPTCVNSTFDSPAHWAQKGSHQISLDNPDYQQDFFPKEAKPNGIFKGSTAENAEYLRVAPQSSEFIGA

For `COc1cc(N2CCC(N3CCN(C)CC3)CC2)c2cc1Nc1ncc(Br)c(n1)Nc1ccc(cc1N(C)S(C)(=O)=O)OCCCCC2` [Compound A29, N-(3^5-bromo-1^6-methoxy-1^4-(4-(4-methylpiperazin-1-yl)piperidin-1-yl)-6-oxa-2,4-diaza-3(2,4)-pyrimidina-1(1,3),5(1,4)-dibenzenacycloundecaphane-5^2-yl)-N-methylmethanesulfonamide], the IC50 (Ba/F3_WT cell) was 1320 nM, the GI50 [1] was 16.4 nM and the ring closure, isolated yield [2] was 55%. It also gave a ring closure, yield of all isomers [3] of 55%, an IC50 (EGFR_L858R/T790M/C797S) of 0.5 nM and an IC50 (EGFR_WT) of 9.2 nM. The “Tumor Volume” value ([4]; 5 mg/kg orally once daily, Day 0) was 130 mm^3, the “Tumor Volume” value ([4]; 5 mg/kg orally once daily, Day 2) was 212 mm^3 and the “Tumor Volume” value ([4]; 5 mg/kg orally once daily, Day 4) was 279 mm^3. For the same compound, the “Tumor Volume” value ([4]; 5 mg/kg orally once daily, Day 7) was 462 mm^3, the “Tumor Volume” value ([4]; 5 mg/kg orally once daily, Day 9) was 633 mm^3 and the “Tumor Volume” value ([4]; 5 mg/kg orally once daily, Day 11) was 819 mm^3. The “Tumor Volume” value ([4]; 5 mg/kg orally once daily, Day 14) was 1061 mm^3, the “tumor growth inhibition rate TGITV (%)” value ([4]; 5 mg/kg orally once daily) was 68% and the “Tumor Volume” value ([4]; 15 mg/kg orally once daily, Day 0) was 130 mm^3. The “Tumor Volume” value ([4]; 15 mg/kg orally once daily, Day 2) was 171 mm^3, the “Tumor Volume” value ([4]; 15 mg/kg orally once daily, Day 4) was 226 mm^3 and the “Tumor Volume” value ([4]; 15 mg/kg orally once daily, Day 7) was 346 mm^3. The “Tumor Volume” value ([4]; 15 mg/kg orally once daily, Day 9) was 469 mm^3, the “Tumor Volume” value ([4]; 15 mg/kg orally once daily, Day 11) was 597 mm^3 and the “Tumor Volume” value ([4]; 15 mg/kg orally once daily, Day 14) was 781 mm^3. The “tumor growth inhibition rate TGITV (%)” value ([4]; 15 mg/kg orally once daily) was 76%, the “Tumor Volume” value ([4]; 45 mg/kg orally once daily, Day 0) was 130 mm^3 and the “Tumor Volume” value ([4]; 45 mg/kg orally once daily, Day 2) was 147 mm^3. The “Tumor Volume” value ([4]; 45 mg/kg orally once daily, Day 4) was 172 mm^3, the “Tumor Volume” value ([4]; 45 mg/kg orally once daily, Day 7) was 108 mm^3 and the “Tumor Volume” value ([4]; 45 mg/kg orally once daily, Day 9) was 78 mm^3. For the same compound, the “Tumor Volume” value ([4]; 45 mg/kg orally once daily, Day 11) was 25 mm^3, the “Tumor Volume” value ([4]; 45 mg/kg orally once daily, Day 14) was 0 mm^3 and the “tumor growth inhibition rate TGITV (%)” value ([4]; 45 mg/kg orally once daily) was 100%. The “tumor growth inhibition (in words)” value ([4]; all doses (5, 15, 45 mg/kg)) was “significant tumor growth inhibition”.
